Laboratory results as given in patent publication US12589097B2, “Apilimod compositions and methods of use” (ORPHAI THERAPEUTICS INC., priority 2023, dated 2026).

How the values were obtained:
[1] = Body weight (percent baseline) in TDP-43 (rNLS8) mouse model of ALS; assay type: in vivo; conditions: Group B (60 mg/kg p.o. BID) vs vehicle Group A
Procedure: (§1) For the evaluation, all mice received either apilimod dimesylate (60 mg/kg)) or vehicle two times daily for 24 days, starting at […] of age, 3 days prior to disease initiation. Both groups had routine clinical assessments 3 times per week. Twenty-four (24) total mice were assigned to one of two groups, as outlined in Table 1. […]
(§2) Animals were weighed at the beginning of the experiment, and then, for dosing, daily for the duration of the study. Animals were also monitored daily, and clinical assessments were performed three times per week (Mondays, Wednesday, and Fridays) from disease initiation to the end of the study. Each clinical assessment day, animals were assessed for signs of motor dysfunction, including signs of tremor, hindlimb clasping, hindlimb paralysis, grill agility, and overall well-being. Each of these signs were scored on a scale of 0-3: normal/no dysfunction (0), mild (1), moderate (2), or severe (3), as summarized in Table 2. […]
(§3) All summary statistics are presented as mean and standard deviation. […] The data were first assessed for normality with a normal probability plot, followed by assessment of homogeneity of variance, if appropriate. […]

[2] = system: TDP-43 (rNLS8) mouse model of ALS; assay: Clinical assessment of motor dysfunction in TDP-43 (rNLS8) mouse model of ALS; assay type: in vivo; conditions: body weight and clinical scores taken together
Procedure: as §1, §2, §3
Progression of clinical scores (also herein “severity score”) throughout the study, following removal of Full DOX was evaluated. […]

[3] = system: Glycoprotein Nonmetastatic Melanoma Protein B (GPNMB); assay: SOMAscan aptamer-based proteomics of plasma from patients dosed with apilimod (NCT02594384); assay type: in vivo, human; conditions: pre-dose vs day 15 after 14 days of dosing, FDR<0.05
Excerpt: A SOMAscan™ platform was used to identify analytes that were changed in the plasma of patients upon apilimod dosing. SOMAscan™ is an aptamer-based proteomics assay from SomaLogic capable of measuring 1,305 human protein analytes in serum or plasma with high sensitivity and specificity. Plasma from patients enrolled in the clinical trial designated NCT02594384 was collected pre-dose (before the first administration of apilimod) and after 14 days of dosing with apilimod, on day 15. Using differential protein analysis with a paired experimental design for linear models of microarray data using the “Limma R” software package described by Ritchie et al. in Nucleic Acids Research, 43(7), pp. e47 (2015).

[4] = Observation of adverse effects of treatment in rNLS8 mice; assay type: in vivo, mouse; conditions: 60 mg/kg p.o. BID for 24 days
Procedure: For the evaluation, all mice received either apilimod dimesylate (60 mg/kg)) or vehicle two times daily for 24 days, starting at […] of age, 3 days prior to disease initiation. Both groups had routine clinical assessments 3 times per week. Twenty-four (24) total mice were assigned to one of two groups, as outlined in Table 1.
Animals were weighed at the beginning of the experiment, and then, for dosing, daily for the duration of the study. Animals were also monitored daily, and clinical assessments were performed three times per week (Mondays, Wednesday, and Fridays) from disease initiation to the end of the study. Each clinical assessment day, animals were assessed for signs of motor dysfunction, including signs of tremor, hindlimb clasping, hindlimb paralysis, grill agility, and overall well-being. Each of these signs were scored on a scale of 0-3: normal/no dysfunction (0), mild (1), moderate (2), or severe (3), as summarized in Table 2.
Apilimod dimesylate was received at ambient temperature in a 50 mL tube and protected from light. The treatments were administered p.o. twice per day (BID) for a period of 24 days Each daily dose was performed within the same ˜2-hour time frame, with approximately 6 hours between doses.

Cc1cccc(/C=N/Nc2cc(N3CCOCC3)nc(OCCc3ccccn3)n2)c1 [apilimod]
percent baseline body weight vs vehicle at every clinical assessment visit [1]: tendency for higher percent baseline body weight | functional deficits in TDP-43 ALS animal model [2]: ameliorates functional deficits | average fold change of plasma (shed) GPNMB [3]: 4 fold | adverse effects of treatment [4]: No adverse effects
